Source: patent US6429173B1, “Defloration agent for apple trees” (Agro-Kanesho Co., Ltd., priority 1998, dated 2002)

Tested on: apple tree (variety: Fuji)
Assay: Defloration effect (percentage of remaining fruits) after spraying a flowering apple branch
Type: in vivo
Details: Low temperature condition (14.6° C.); ethephon alone 100 ppm, compound (I) 0 ppm; 30 days after spraying
Source text: The ME preparation and ethephon preparation produced as described above were mixed together to obtain an application solution.
A branch having about 50 bunches of flowers was selected from a 13-year old apple tree (variety: Fuji). The application solution produced as described above was sprayed over the whole branch with a knapsack sprayer on the day after the full blossom of the central flower. The evaluation results are shown by percentages of remaining fruits (both central and lateral fruits) calculated by the formula shown below. The phytotoxicity was determined on the basis of defoliation, discolored leaves, state of leaves and also state of russet, and the results were classified into the following 5 ranks (− to +++).
Percentage of remaining fruits ≈ number of normal fruits on the test day/number of flowers on the treatment day × 100

`O=P(O)(O)CCCl` [Ethephon, 2-chloroethylphosphonic acid] was tested, and the “Fruit setting rate (%) Central fruit” value was 83% and the “Fruit setting rate (%) Lateral fruit” value was 42%.
